From ChEMBL document CHEMBL3639215, “Piperazine compound having a PGDS inhibitory effect” (2014)

Target: Hematopoietic prostaglandin D synthase (Homo sapiens, UniProt O60760)
Assay: Inhibiting Action: The test was carried out according to the method of Urade, Y. et al. (J. Biol. Chem., 262, 3820-3825, (1987)). More specifically, the reaction mixture (49 μL) containing 100 mM Tris-HCl (pH 8.0), 1 mM reduced glutathione, 0.1 mg/mL γ-globulin, and human H-PGDS (q.s.), and a compound (final concentration: 0.01-100 μM) was preincubated at 25C. for 5 minutes. A DMSO solution (final concentration: 1%) was added to the solvent control group. Subsequently, 1 μL of [14C] prostaglandin H2 (final concentration: 10 μM) was added to start the reaction. One minute after the start of the reaction, 250 μL of a reaction stop solution (diethylether/methanol/1 M citric acid (30/4/1) at a temperature of −20C. was added to stop the reaction. After the reaction was stopped, 50 μL of the upper-layer portion (organic solvent layer) was applied to a TLC plate and developed at −20C. for 45 minutes (developing solvent: diethylether/methanol/acetic acid (90/2/1)).

Chain of Hematopoietic prostaglandin D synthase (O60760 whole entry): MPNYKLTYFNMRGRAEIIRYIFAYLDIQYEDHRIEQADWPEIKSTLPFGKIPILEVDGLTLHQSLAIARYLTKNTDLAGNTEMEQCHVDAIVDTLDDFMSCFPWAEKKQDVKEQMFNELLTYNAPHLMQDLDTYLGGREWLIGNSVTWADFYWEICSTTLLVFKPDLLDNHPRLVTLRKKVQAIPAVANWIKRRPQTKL

Row | Structure (SMILES) | IC50 [µM]
1 | O=C(Nc1nc2ccc(Br)cc2s1)N1CCN(C(=O)c2cccc(F)c2)CC1 | 0.106
2 | Cc1cc2nc(NC(=O)N3CCN(C(=O)c4cccc(F)c4)CC3)sc2cc1C | 0.222
3 | Cc1ccc2nc(NC(=O)N3CCN(C(=O)c4cccc(F)c4)CC3)sc2c1 | 0.26
4 | COc1ccc2nc(NC(=O)N3CCN(C(=O)c4cccc(F)c4)CC3)sc2c1 | 0.318
5 | O=C(Nc1nc2ccc(Cl)cc2s1)N1CCN(C(=O)c2cccc(F)c2)CC1 | 0.204
6 | Cc1cc(C)c(C(=O)N2CCN(C(=O)NC3CCN(c4ccc(C(=O)NCCN5CCOCC5)cc4)CC3)CC2)[nH]1 | > 1
7 | Cn1ccc(C(=O)N2CCN(C(=O)NC3CCN(c4ccc(C(=O)NCCN5CCOCC5)cc4)CC3)CC2)c1 | > 1
8 | O=C(NCCN1CCOCC1)c1ccc(N2CCC(NC(=O)N3CCN(C(=O)c4ccsc4)CC3)CC2)cc1 | 0.327
9 | Cn1ccnc1C(=O)N1CCN(C(=O)NC2CCN(c3ccc(C(=O)NCCN4CCOCC4)cc3)CC2)CC1 | > 1
10 | O=C(NCCN1CCOCC1)c1ccc(N2CCC(NC(=O)N3CCN(C(=O)C4CCCC4)CC3)CC2)cc1 | > 1
11 | O=C(NCCN1CCOCC1)c1ccc(N2CCC(NC(=O)N3CCN(C(=O)c4ccccc4)CC3)CC2)cc1 | 0.249

Next, values leading:

Row | IC50 [µM] | Structure (SMILES)
12 | 0.334 | O=C(NCCN1CCOCC1)c1ccc(N2CCC(NC(=O)N3CCN(C(=O)c4ccc[nH]4)CC3)CC2)cc1
13 | 0.201 | O=C(NCCN1CCOCC1)c1ccc(N2CCC(NC(=O)N3CCN(C(=O)c4cccs4)CC3)CC2)cc1
14 | 0.445 | O=C(NCCN1CCOCC1)c1ccc(N2CCC(NC(=O)N3CCN(C(=O)c4ccco4)CC3)CC2)cc1
15 | > 1 | O=C(NCCN1CCOCC1)c1ccc(N2CCC(NC(=O)N3CCN(C(=O)c4ccoc4)CC3)CC2)cc1
16 | > 1 | O=C(NCCN1CCOCC1)c1ccc(N2CCC(NC(=O)N3CCN(C(=O)c4ccno4)CC3)CC2)cc1
